Experimental data: US8536337B2, “Solid forms of methyl (7aS,2′S)-2-(2-chlorophenyl)-2-(2,4,5,6,7,7a-hexahydrothieno[3,2-c]-5-pyridin-2-one)acetate” (IPCA Laboratories Limited, priority 2012, dated 2013)
Counter-ions that a name gives are not always drawn. Like-named read-outs stand apart in the source and are kept apart here.

Columns and labels:
[1] = tested on: ADP induced platelet aggregation; test: Measurement of platelet aggregation with ADP, ex vivo whole blood impedance aggregometry after oral dosing; assay type: in vivo, rat; details: SD rats, blood 4 h after dosing, 10 μM ADP; for % aggregation: vehicle control = 100%
Method: Measurement of Platelet Aggregation with ADP
The activity on the aggregation of plates induced by ADP or collagen was determined ex-vivo.
The products as a suspension in 5% Gum Arabica (aq.) were administered by oral route to groups of six male rats of the SD strain, weighing 250-300 g. After 4 hours of the administration, 2 ml of blood is collected into the heparinized tubes by puncture of retro-orbital sinus. 0.5 ml of the anticoagulated blood is diluted with an equal volume of isotonic saline solution and incubated at 37° C. for 10 minutes. To the incubated whole blood, 10 μM ADP is added and the change in impedance (Ω), which reflects platelet aggregation, is recorded for 8 minutes with Chronolog Whole Blood Aggregometer (Model 592, Chrono-log Corp., USA). The percentage inhibition of platelet aggregation is calculated by the following formula considering the vehicle control reading as 100%:

[2] = tested on: FeCl3 induced arterial thrombus formation (common carotid artery); test: FeCl3 induced Arterial Thrombosis Model; assay type: in vivo, rat; details: SD rats, 30% FeCl3 1 hour post dosing
Method: 2. Anti-Thrombotic Activity
The antithrombotic activity has also been studied in FeCl3 induced Arterial Thrombosis Model according to standard procedures reported by William A. Schumacher et al., 2007 (Journal of Pharmacology and Experimental Therapeutics, 322 (I): 369-377) and Takao Tanaka et al. 2000 (European Journal of Pharmacology, 401: 413-418).
The products were dissolved in DMSO (1 mg/ml) and diluted in PEG/Water (Ratio: DMSO:PEG:Water=5:50:45), and were administered by the per oral mute to groups of 8 male rats of the SD strain, weighing 250-300 g after overnight fast. 1 hour post dosing, rats were anesthetized with Ketamine (100 mg/kg; i.p.), Xylazine (10 mg/kg; i.p) and placed on a heating pad. After aseptic preparation of the tracheal and scapular region of the rats, a midline incision of the tracheal area was made and a blunt dissection was performed to expose the common carotid artery. Approximately 2 cm of the common carotid artery was freed from the connective tissues, jugular veins, and vagus nerve and a ˜3 mm filter paper, briefly soaked in 30% FeCl3 solution, was placed around the artery for 10 min. The artery was isolated after 15 mins of the removal of filter paper and the rat was euthanized. Thrombus developed was scraped out from the extracted artery and kept for drying for 24 hours. The wet and dry weight of thrombus was recorded and expressed as mg weight of thrombus per kg body weight. % inhibition of the thrombus formation is calculated using the formula: […]

[3] = Stability of the isolated isomer against conversion into mixture of isomers (keto-enol tautomerism); assay type: physicochemical; details: normal conditions, even in solutions
Excerpt: The present invention is realized by way of preferential stereoselective crystallization of one of the isomer {(7aS,2′S)-isomer} from a mixture of isomers with or without dynamic conversion of counter stereo-isomer {(7aR,2′S)-isomer} through enol form. 2-oxo-clopidogrel can exists in three isomeric forms, namely structures of formula II, Formula VI and Formula VII. […] Once the double bond in the ring flips between the tetrahydropyridine nucleus and the thiophene ring, it destroys the chiral centre at 7a position, especially during its formation, resulting in mixture of isomers. Therefore, to date, there are no reports available to exclusively isolate one of the isomer selectively. […] The compounds of the present invention are substantially free of other isomers for example, compound of Formula VI, and Formula VII, apart from isomer of Formula IIB. Substantially free herein means the levels of these compounds individually or cumulatively are less than 10%, preferably less than, 5%, more preferably less than 3%, still more preferably, less than 1.0%.

[4] = tested on: recurrent ischemic events / major bleeding events; details: cited from earlier work
[5] = tested on: ADP induced platelet aggregation; details: cited from earlier work; for time until 50% inhibition of ADP induced platelet aggregation is reached: LTA, 5 μM ADP ex-vivo
[6] = tested on: rat; details: in rat; cited from earlier work
[7] = cited from earlier work
[8] = 2.2 mg/kg p.o. (1.98 mg/kg base)
[9] = 1.3 mg/kg p.o. (1.17 mg/kg base)
[10] = patients at high risk of vascular events
[11] = combined with Aspirin therapy in patients with ACS

COC(=O)[C@H](c1ccccc1Cl)N1CCC2SC(=O)C=C2C1.Cl (stereo partly drawn) [(2'S)-2-oxoclopidogrel hydrochloride]
% inhibition [1, 8]: 48.04%
% aggregation [1, 8]: 51.96%

COC(=O)C(c1ccccc1Cl)N1CCC2SC(=O)C=C2C1 [(7aS,2'S)-2-oxoclopidogrel bisulphate, Methyl (7aS,2′S)-2-(2-chlorophenyl)-2-(2,4,5,6,7,7a-hexahydrothieno[3,2-c]-5-pyridin-2-one)acetate hydrogen sulfate]
% Inhibition of Thrombus Formation (Mean ± SEM) [2, 9]: 76 ± 3.3%
Dry weight of Thrombus (mg/kg) (Mean ± SEM) [2, 9]: 0.98 ± 0.1 mg/kg
% aggregation ([1]; 2.5 mg/kg p.o. (1.9 mg/kg base)): 14.57%
% aggregation ([1]; 3.5 mg/kg p.o. (2.7 mg/kg base)): 9.14%
inhibition at 2.5 mg/kg ([1]; Rattus norvegicus, Platelet, po, 2.5 mg/kg p.o. (1.9 mg/kg base)): 85.4%
inhibition at 3.5 mg/kg ([1]; Rattus norvegicus, Platelet, po, 3.5 mg/kg p.o. (2.7 mg/kg base)): 90.9%

COC(=O)C(c1ccccc1Cl)N1CCC2SC(=O)C=C2C1 [(7aS,2′S)-2-oxoclopidogrel, Methyl (7aS,2′S)-2-(2-chlorophenyl)-2-(2,4,5,6,7,7a-hexahydrothieno[3,2-c]-5-pyridin-2-one)acetate]
stability against conversion into mixture of isomers [3]: stable and resistant to conversion into mixture

CC(=O)Oc1ccccc1C(=O)O [Aspirin]
Absolute risk increase (ARI), major bleeding events [4, 10]: about 0.5%
absolute risk reduction (ARR), recurrent ischemic events [4, 10]: about 2%
increase in the odds of major bleeding events [4, 10]: about 60%
reduction of the risk of recurrent ischemic events [4, 10]: 22%

COC(=O)[C@H](c1ccccc1Cl)N1CCc2sccc2C1 [Clopidogrel bisulphate]
% Inhibition of Thrombus Formation (Mean ± SEM) ([2]; 4 mg/kg p.o. (3.06 mg/kg base)): 73 ± 5.3%
Dry weight of Thrombus (mg/kg) (Mean ± SEM) ([2]; 4 mg/kg p.o. (3.06 mg/kg base)): 1.10 ± 0.2 mg/kg
% aggregation ([1]; 25 mg/kg p.o. (19.15 mg/kg base)): 22.85%
inhibition at 25 mg/kg ([1]; Rattus norvegicus, Platelet, po, 25 mg/kg p.o. (19.15 mg/kg base)): 77.2%

CC(=O)Oc1cc2c(s1)CCN(C(C(=O)C1CC1)c1ccccc1F)C2 (stereo not drawn) [Prasugrel hydrochloride]
% aggregation ([1]; 2.2 mg/kg p.o. (2 mg/kg base)): 18.93%
inhibition at 2.2 mg/kg ([1]; Rattus norvegicus, Platelet, po, 2.2 mg/kg p.o. (2 mg/kg base)): 81.1%

COC(=O)[C@H](c1ccccc1Cl)N1CCc2sccc2C1 [clopidogrel, (+)-(S)-methyl2-(2-chlorophenyl)-2-(6,7-dihydrothieno[3,2-c]pyridin-5(4H)-yl)acetate]
inhibition of ADP induced platelet aggregation ([5]; 900 mg, at 5 μM ADP): 60%
inhibition of platelet aggregation ([5]; 900 mg, induced by 20 μM of ADP (ex vivo)): less than 50%
time until 50% inhibition of ADP induced platelet aggregation is reached ([5]; dose 600 mg): 2 h
time until 50% inhibition of ADP induced platelet aggregation is reached ([5]; loading dose of 300 mg): 4 to 6 h
lethal dose [6]: about 5000 mg per kg
ARR, recurrent ischemic events [4, 11]: about 2.1%
further reduction of the risk of recurrent ischemic events [4, 11]: 20%
share converted to clopidogrel acid in vivo [7]: 90%
